Calls of active or inactive are those of the source. Cut-off read from the data, not from the text of the source, for most assays here: actives have a measured Kd and inactives only a lower limit. Bounds are passed on as bounds.

From ChEMBL document CHEMBL3991601, “The target landscape of clinical kinase drugs” (Science, 2017) come the findings set out here.

Assay [1] concerns the target T1, Phenylalanine--tRNA ligase beta subunit (Homo sapiens, UniProt Q9NSD9).
T1 sequence (Q9NSD9 whole entry): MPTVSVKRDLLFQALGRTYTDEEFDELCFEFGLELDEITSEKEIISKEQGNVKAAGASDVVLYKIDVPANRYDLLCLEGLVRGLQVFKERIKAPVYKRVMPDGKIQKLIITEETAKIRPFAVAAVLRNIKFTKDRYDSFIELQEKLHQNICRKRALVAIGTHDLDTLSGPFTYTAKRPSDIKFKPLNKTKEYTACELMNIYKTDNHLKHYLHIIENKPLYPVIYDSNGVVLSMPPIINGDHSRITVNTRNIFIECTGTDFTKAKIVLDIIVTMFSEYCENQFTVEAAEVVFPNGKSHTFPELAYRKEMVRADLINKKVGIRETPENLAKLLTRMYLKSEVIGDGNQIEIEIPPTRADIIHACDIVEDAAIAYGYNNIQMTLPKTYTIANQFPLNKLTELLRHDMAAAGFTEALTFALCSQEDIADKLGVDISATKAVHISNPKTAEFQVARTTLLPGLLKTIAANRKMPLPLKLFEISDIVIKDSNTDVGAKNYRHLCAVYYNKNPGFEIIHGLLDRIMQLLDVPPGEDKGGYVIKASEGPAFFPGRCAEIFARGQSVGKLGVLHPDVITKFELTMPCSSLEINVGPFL

Assay [2] addresses Tyrosine-protein kinase JAK1 (Homo sapiens, UniProt P23458).
Assay [3] addresses Ribosomal protein S6 kinase alpha-5 (Homo sapiens, UniProt O75582).
In assay [4] the target is Tyrosine-protein kinase HCK (Homo sapiens, UniProt P08631).
Sequence of Tyrosine-protein kinase HCK (P08631 whole entry): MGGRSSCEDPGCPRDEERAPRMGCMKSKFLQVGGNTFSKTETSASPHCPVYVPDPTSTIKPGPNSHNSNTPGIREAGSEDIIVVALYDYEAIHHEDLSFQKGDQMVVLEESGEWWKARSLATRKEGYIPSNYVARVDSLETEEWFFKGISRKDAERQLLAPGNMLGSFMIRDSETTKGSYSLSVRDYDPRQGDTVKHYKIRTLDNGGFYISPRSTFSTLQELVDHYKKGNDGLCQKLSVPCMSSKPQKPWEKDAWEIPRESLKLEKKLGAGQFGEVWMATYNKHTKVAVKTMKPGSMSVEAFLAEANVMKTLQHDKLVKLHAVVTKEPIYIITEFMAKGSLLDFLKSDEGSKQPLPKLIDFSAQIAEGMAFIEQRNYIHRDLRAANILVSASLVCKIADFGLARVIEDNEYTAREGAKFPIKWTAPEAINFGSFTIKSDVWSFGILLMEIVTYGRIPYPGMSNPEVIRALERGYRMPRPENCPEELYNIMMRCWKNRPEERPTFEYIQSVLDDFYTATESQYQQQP
For assay [5], the target named is Serine/threonine-protein kinase pim-1 (Homo sapiens, UniProt P11309).
Sequence of Serine/threonine-protein kinase pim-1 (P11309 whole entry): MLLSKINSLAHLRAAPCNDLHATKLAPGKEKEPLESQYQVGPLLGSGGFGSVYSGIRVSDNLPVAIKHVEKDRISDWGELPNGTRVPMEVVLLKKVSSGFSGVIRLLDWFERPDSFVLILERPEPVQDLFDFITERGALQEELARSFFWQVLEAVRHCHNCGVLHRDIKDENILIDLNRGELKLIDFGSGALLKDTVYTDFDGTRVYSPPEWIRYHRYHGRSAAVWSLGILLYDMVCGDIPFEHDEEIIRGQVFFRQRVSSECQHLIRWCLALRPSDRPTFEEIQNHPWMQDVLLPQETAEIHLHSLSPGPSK
Assay [6] concerns the target T2, Mitogen-activated protein kinase 15 (Homo sapiens, UniProt Q8TD08).
T2 sequence (Q8TD08 whole entry): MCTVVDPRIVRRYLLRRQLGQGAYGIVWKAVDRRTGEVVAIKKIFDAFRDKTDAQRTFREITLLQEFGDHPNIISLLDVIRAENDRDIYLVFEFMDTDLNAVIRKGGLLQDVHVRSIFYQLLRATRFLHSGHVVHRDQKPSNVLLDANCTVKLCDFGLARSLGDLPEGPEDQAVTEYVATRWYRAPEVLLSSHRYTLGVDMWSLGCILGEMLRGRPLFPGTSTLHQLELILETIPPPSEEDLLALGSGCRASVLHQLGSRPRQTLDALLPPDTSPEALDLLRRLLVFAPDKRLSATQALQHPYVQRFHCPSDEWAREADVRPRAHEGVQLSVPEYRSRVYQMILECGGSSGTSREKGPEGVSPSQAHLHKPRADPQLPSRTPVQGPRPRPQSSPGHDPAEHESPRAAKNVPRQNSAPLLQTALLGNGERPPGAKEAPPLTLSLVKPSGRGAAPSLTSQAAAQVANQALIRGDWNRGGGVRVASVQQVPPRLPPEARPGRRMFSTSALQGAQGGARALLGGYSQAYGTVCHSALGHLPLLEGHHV

Assay [7] concerns the target Epithelial discoidin domain-containing receptor 1 (Homo sapiens, UniProt Q08345).
In assay [8] the target is Cyclin-dependent kinase 1 (Homo sapiens, UniProt P06493).
Sequence of Cyclin-dependent kinase 1 (P06493 whole entry): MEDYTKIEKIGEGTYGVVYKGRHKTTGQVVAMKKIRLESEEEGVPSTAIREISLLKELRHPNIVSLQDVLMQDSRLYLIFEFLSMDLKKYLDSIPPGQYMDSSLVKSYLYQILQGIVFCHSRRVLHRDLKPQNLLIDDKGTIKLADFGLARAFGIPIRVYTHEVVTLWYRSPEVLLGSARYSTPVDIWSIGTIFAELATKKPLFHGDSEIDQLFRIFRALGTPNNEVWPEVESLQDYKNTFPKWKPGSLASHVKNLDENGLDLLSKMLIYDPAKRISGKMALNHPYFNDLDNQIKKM
The target in a further assay is Ephrin type-A receptor 7 (Homo sapiens, UniProt Q15375).
Sequence of Ephrin type-A receptor 7 (Q15375 whole entry): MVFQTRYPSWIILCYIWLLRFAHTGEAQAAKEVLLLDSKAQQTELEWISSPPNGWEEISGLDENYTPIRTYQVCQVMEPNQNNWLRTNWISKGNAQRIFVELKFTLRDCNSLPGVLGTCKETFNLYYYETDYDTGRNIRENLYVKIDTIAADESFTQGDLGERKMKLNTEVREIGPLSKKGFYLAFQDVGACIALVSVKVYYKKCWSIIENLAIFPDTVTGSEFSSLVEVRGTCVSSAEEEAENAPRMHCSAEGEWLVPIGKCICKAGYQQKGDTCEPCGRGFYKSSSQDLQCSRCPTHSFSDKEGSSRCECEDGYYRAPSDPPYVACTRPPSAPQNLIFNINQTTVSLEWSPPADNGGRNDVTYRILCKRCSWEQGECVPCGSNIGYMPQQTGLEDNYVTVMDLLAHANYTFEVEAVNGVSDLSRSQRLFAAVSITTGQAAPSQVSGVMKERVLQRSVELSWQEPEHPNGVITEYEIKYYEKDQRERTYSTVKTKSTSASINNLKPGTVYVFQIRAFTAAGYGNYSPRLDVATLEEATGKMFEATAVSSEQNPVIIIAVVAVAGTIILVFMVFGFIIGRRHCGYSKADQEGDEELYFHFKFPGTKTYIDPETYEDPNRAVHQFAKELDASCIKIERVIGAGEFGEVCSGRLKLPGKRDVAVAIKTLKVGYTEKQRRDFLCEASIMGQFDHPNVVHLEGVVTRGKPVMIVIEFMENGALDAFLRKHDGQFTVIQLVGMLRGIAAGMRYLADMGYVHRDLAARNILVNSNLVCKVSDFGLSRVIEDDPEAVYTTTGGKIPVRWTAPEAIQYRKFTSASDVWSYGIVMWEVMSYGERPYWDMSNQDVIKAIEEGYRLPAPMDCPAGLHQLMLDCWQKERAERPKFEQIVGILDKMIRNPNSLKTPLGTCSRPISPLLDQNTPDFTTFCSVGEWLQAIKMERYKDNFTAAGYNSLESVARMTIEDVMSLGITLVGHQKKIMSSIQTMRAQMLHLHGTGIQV
In assay [9] the target is Calcium/calmodulin-dependent protein kinase kinase 2 (Homo sapiens, UniProt Q96RR4).
Sequence of Calcium/calmodulin-dependent protein kinase kinase 2 (Q96RR4 whole entry): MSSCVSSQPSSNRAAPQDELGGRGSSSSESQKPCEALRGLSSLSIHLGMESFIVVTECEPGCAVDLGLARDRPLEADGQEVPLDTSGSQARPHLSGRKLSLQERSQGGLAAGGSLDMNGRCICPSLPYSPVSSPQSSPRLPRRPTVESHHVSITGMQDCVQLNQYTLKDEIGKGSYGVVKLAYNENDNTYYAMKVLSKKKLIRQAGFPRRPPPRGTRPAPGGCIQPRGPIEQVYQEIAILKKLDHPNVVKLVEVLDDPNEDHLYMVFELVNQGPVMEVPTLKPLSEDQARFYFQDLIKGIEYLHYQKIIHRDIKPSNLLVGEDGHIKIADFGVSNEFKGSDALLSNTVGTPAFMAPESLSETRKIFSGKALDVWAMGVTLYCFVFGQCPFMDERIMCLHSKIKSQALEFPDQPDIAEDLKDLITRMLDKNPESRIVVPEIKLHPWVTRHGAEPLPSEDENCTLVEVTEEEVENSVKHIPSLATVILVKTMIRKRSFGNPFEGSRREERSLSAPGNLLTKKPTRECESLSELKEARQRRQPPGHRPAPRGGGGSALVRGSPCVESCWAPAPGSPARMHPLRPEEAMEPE
The target in the next assay is Activin receptor type-2B (Homo sapiens, UniProt Q13705).
Sequence of Activin receptor type-2B (Q13705 whole entry): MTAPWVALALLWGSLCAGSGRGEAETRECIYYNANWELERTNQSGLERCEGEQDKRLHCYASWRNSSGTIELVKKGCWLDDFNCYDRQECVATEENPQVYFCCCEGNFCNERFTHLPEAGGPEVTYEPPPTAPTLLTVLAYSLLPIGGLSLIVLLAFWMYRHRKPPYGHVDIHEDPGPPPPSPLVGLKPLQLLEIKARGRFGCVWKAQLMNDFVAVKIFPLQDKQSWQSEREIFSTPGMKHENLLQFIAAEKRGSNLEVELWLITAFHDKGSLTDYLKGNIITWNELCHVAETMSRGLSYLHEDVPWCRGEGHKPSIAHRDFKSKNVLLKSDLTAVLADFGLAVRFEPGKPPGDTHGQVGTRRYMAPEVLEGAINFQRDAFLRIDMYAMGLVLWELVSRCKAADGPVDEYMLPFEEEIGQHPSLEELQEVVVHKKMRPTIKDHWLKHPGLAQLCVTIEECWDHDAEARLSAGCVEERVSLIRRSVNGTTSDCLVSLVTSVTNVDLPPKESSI
Note: in the data inactive means no Kd found up to 30 µM.

Sequence of Epithelial discoidin domain-containing receptor 1 (Q08345 whole entry, the tested form may be a part): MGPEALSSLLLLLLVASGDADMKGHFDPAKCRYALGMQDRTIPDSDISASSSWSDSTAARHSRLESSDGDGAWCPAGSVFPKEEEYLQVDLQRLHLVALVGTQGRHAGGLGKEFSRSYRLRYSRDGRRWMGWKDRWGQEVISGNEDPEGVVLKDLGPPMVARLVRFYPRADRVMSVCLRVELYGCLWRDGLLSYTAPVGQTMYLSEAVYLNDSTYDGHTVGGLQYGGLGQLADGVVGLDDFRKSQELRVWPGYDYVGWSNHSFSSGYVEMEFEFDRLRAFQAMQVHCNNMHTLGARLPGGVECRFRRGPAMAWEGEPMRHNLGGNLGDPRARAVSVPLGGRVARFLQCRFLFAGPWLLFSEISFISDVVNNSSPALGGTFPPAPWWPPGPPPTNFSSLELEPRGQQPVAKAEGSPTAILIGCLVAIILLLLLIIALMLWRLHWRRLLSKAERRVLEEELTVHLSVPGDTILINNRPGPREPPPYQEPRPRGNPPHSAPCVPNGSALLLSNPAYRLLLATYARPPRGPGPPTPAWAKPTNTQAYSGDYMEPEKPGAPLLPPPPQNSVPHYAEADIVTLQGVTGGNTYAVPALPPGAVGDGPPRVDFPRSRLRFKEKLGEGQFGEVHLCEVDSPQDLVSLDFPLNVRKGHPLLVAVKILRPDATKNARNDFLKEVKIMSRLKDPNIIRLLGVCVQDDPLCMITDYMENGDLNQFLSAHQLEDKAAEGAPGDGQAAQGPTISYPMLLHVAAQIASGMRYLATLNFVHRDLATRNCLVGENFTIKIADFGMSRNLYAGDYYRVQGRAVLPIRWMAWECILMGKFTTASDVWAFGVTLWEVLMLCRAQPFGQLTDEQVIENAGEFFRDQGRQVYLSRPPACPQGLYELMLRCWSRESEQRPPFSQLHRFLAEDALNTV
Sequence of Ribosomal protein S6 kinase alpha-5 (O75582 whole entry): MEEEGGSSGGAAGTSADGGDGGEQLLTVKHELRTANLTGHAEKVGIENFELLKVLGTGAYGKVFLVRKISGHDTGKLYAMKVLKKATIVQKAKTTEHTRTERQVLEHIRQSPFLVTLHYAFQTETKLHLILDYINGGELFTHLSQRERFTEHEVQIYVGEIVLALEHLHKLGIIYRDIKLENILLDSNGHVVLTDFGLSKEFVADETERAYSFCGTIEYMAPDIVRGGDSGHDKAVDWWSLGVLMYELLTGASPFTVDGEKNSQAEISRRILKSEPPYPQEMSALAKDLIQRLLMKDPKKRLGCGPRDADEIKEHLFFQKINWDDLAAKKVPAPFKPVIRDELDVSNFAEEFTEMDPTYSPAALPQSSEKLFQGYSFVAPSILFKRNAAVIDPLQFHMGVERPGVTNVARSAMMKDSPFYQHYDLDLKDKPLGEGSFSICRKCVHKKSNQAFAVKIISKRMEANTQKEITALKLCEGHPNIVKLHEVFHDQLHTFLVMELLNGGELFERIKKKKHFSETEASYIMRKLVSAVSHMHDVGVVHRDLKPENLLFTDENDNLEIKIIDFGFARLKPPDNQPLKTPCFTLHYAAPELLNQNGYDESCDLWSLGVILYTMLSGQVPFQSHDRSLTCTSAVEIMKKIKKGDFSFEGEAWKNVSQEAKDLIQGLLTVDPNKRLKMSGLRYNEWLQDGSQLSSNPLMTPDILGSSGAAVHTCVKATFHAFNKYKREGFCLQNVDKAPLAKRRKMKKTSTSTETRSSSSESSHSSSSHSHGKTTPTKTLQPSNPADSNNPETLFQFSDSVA

As for `C[C@@H](Oc1cc(C(=O)Nc2ccc(C(=O)N3CCN(C)CC3)cc2)nnc1N)c1c(Cl)ccc(F)c1Cl`, the Kd in assay [1], in assay [2], in assay [3], in assay [4], in assay [5] and in assay [6] was > 30 µM (inactive) in each case. Besides, the Kd (in assay [7]; in assay [8]; on Ephrin type-A receptor 7; in assay [9]; at Activin receptor type-2B) was > 30 µM (inactive) in each case.

Consider `C[C@H]1CNCCCN1S(=O)(=O)c1cccc2cncc(F)c12`, for which the Kd in [1], in [2], in [3], in assay [4], in assay [5] and in [7] was > 30 µM (inactive) in each case. Further, the Kd (in [8]; in assay [9]; at Activin receptor type-2B) was > 30 µM (inactive) throughout.

As to `CC(=O)c1cnc2ccc(-c3cc(Cl)c(O)c(Cl)c3)nc2c1N[C@H]1CC[C@H](CN(C)C)CC1`, the Kd in assay [1] is > 30 µM (inactive); in assay [2] it was > 30 µM (inactive); in [3] it was 0.298 µM (active); in assay [4], 0.116 µM (active); in [5] it was 0.014 µM (active); in [6], 0.09 µM (active). Also, the Kd in assay [7] was 0.515 µM (active); in assay [8], 0.288 µM (active); on Ephrin type-A receptor 7, 0.016 µM; in assay [9], 0.126 µM (active); on Activin receptor type-2B it was > 30 µM (inactive).

For `Cc1nc(NC(=O)N2CCC[C@H]2C(N)=O)sc1-c1ccnc(C(C)(C)C(F)(F)F)c1` [ALPELISIB], the Kd in assay [1], in assay [2], in assay [3], in assay [4], in [5] and in assay [6] was > 30 µM (inactive) throughout. In addition, the Kd (in assay [7]; in assay [8]; at Ephrin type-A receptor 7; in assay [9]) was > 30 µM (inactive) each time.

Take `O=C(Nc1c[nH]nc1-c1nc2cc(CN3CCOCC3)ccc2[nH]1)NC1CC1` [AT-9283]: the Kd in assay [1] is > 30 µM (inactive); in assay [2], 0.368 µM (active); in assay [3], 1.25 µM (active); in assay [4], 0.664 µM (active); in assay [5], > 30 µM (inactive); in assay [6], > 30 µM (inactive). The Kd was > 30 µM (inactive) in [8], 0.008 µM (active) at Ephrin type-A receptor 7, > 30 µM (inactive) in [9] and > 30 µM (inactive) on Activin receptor type-2B.

Consider `CNC(=O)c1ccccc1Sc1ccc2c(/C=C/c3ccccn3)n[nH]c2c1` [AXITINIB], for which the Kd in assay [1] and in assay [8] was > 30 µM (inactive) throughout.

Regarding `COc1cc([C@@H]2c3cc4c(cc3[C@H](O)[C@H]3COC(=O)[C@@H]23)OCO4)cc(OC)c1OC` [AXL-1717], the Kd in [1], in assay [2], in [3], in [4], in assay [5] and in assay [6] was > 30 µM (inactive) each time. Besides, the Kd (in assay [7]; in assay [8]; on Ephrin type-A receptor 7; in assay [9]; on Activin receptor type-2B) was > 30 µM (inactive) each time.

Regarding `Cn1cc(C2=C(c3cn(C4CCN(Cc5ccccn5)CC4)c4ccccc34)C(=O)NC2=O)c2ccccc21` [ENZASTAURIN], the Kd in assay [1] and in assay [8] was > 30 µM (inactive) throughout.

`Cc1cccc(-c2nn3c(c2-c2ccnc4ccc(C(N)=O)cc24)CCC3)n1` [GALUNISERTIB]: the Kd in assay [1], in assay [2], in assay [3], in assay [4], in [5] and in assay [6] was > 30 µM (inactive) each time. Further, the Kd (in assay [7]; in assay [8]; on Ephrin type-A receptor 7; in assay [9]; on Activin receptor type-2B) was > 30 µM (inactive) throughout.

With `C[C@@H](Oc1cc(-n2cnc3ccc(CN4CCN(C)CC4)cc32)sc1C(N)=O)c1ccccc1C(F)(F)F` [GSK-461364], the Kd (in assay [1]; in [8]; on Activin receptor type-2B) was > 30 µM (inactive) throughout.

Take `O=C(Nc1cc(C(F)(F)F)cc(C(F)(F)F)c1)c1cc(Cl)ccc1O` [IMD-0354]: the Kd in assay [1], in assay [2], in assay [3], in [4], in assay [6] and in assay [7] was > 30 µM (inactive) each time. The Kd (at Ephrin type-A receptor 7; in [9]; on Activin receptor type-2B) was > 30 µM (inactive) in each case.

In the case of `CN(C[C@@H]1COCCO1)S(=O)(=O)Nc1ccc2ccc3ncc(-c4cnn(C)c4)cc3c(=O)c2c1` [MK-2461], the Kd in assay [1], in [2], in assay [3], in [4], in assay [5] and in assay [6] was > 30 µM (inactive) throughout. Also, the Kd (in assay [7]; in assay [8]; at Ephrin type-A receptor 7; in [9]; at Activin receptor type-2B) was > 30 µM (inactive) in each case.

As to `Cc1[nH]c(/C=C2\C(=O)Nc3ccccc32)c(C)c1CCC(=O)O` [ORANTINIB], the Kd (in assay [1]; in assay [2]; in assay [6]; in [7]; on Ephrin type-A receptor 7; at Activin receptor type-2B) was > 30 µM (inactive) throughout.

As for `CCCCCCCCCCCCCCCCCCOP(=O)([O-])OC1CC[N+](C)(C)CC1` [PERIFOSINE], the Kd in assay [1], in [2], in [3], in assay [4], in assay [5] and in assay [6] was > 30 µM (inactive) in each case. For the same compound, the Kd (in assay [7]; in [8]; on Ephrin type-A receptor 7; in assay [9]; at Activin receptor type-2B) was > 30 µM (inactive) each time.

`O=C(NOCCO)c1cc(CN2OCCCC2=O)c(F)c(F)c1Nc1ccc(I)cc1F` [RO-4987655]: the Kd in assay [1] and in assay [8] was > 30 µM (inactive) each time.

Regarding `N#CC[C@H](C1CCCC1)n1cc(-c2ncnc3[nH]ccc23)cn1` [RUXOLITINIB], the Kd in [1] and in [8] was > 30 µM (inactive) each time.

With `Cn1ncc(Cl)c1-c1cc(C(=O)N[C@H](CN)Cc2ccc(F)c(F)c2)oc1Cl` [UPROSERTIB], the Kd in assay [1], in [2], in assay [3], in [4], in [5] and in [6] was > 30 µM (inactive) throughout. Moreover, the Kd (in [7]; in assay [8]; at Ephrin type-A receptor 7; in assay [9]; at Activin receptor type-2B) was > 30 µM (inactive) throughout.

A word on the Kd: it is the equilibrium constant for the complex coming apart.
